Target: T1, HIV-1 protease (Human immunodeficiency virus type 1 group M subtype B, UniProt P04585)
T1 construct: made in house; host or cells: E. coli K12 L507/pHP10D (NRRL B-18560)
Assay: Fluorescence HIV-1 Protease Inhibitor Assay
Type: biochemical
Conditions: for Fluorescence Assay IC50: purified HIV-1 protease, biotin/FITC-labelled peptide substrate, Pandex read-out, all values normalized to the positive control (= 1.0)
Procedure: E. Fluorescence HIV-1 Protease Inhibitor Assay
The following buffers and solutions are used in the Fluorescence HIV-1 Protease Inhibitor Assay:
To each well of a round bottom, 96-well plate is added 20 μL of the Enzyme Solution followed by 10 μL of the compound to be evaluated in a 20% aqueous dimethylsulfoxide solution. Purified HIV-1 protease was obtained as described above. […] The solutions are then incubated for 16 hours at room temperature and then each well is diluted with 150 μL of MES-ALB buffer.
To each well of a second round bottom, 96-well Pandex plate is added 25 uL of the Avidin Coated Beads Solution. Then, to each well is added 25 μL of the diluted incubation solutions, prepared above. The solutions are mixed thoroughly and the plates are loaded into a Pandex® machine, washed, evacuated and read. Sample detection was performed by excitation at 485 nm, reading the resulting epifluorescence at 535 nm.

Question: How did the “Fluorescence Assay IC50” value turn out when “2R- (2R*, 3S*, 6S*, 9R*)!-N-t-Butyl-2- 2-hydroxy-3-phenylmethyl-4,7-diaza -2,8-dioxo-6-(1-methylethyl)-9-amino-10-naphth-1-yl!benzamide [Example 4]” was run?
Answer: Its value is 2.48 ng/mL.

Question: How did the “Fluorescence Assay IC50” value turn out when “2R-(3R*,3S*,6S*,9R*)!-N-t-Butyl-2- 2-hydroxy-3-phenylmethyl-4,7-diaza -5,8,dioxo-6-(carbamoylmethyl)-9-amino-10-naphth-1-yl!decyl benzamide [Example 8]” was run?
Answer: Its value is 2.28 ng/mL.

Question: `CC(C)C(NC(=O)C(Cc1cccc2ccccc12)NC(=O)OC(C)(C)C)C(=O)NC(Cc1ccccc1)C(O)Cc1ccccc1C(=O)NC(C)(C)C` (stereo not drawn) [Example 1C, 2R-(2R*, 3S*, 6S*, 9S*)!-N-t-Butyl-2-2-hydroxy-3-phenylmethyl-4,7-diaza-5,8-dioxo-6-(1-methylethyl)-9-N(t-butoxycarbonyl)amino-10-naphth-1-yl!decyl benzamide] was tested. Which “Fluorescence Assay IC50” value did it give?
Answer: The value was 1.44 ng/mL.

Question: `CC(C)C(NC(=O)C(Cc1cccc2ccccc12)NC(=O)OC(C)(C)C)C(=O)NC(Cc1ccccc1)C(O)Cc1ccccc1C(=O)NC(C)(C)C` (stereo not drawn) [Example 2, 2R-(2R*,3S*,6S*,9R*)!-N-t-Butyl-2-2-hydroxy-3-phenylmethyl-4,7-diaza-5,8-dioxo-6-(1-methylethyl)-9-N(t-butoxycarbonyl)amino-10-naphth-1-yl!decyl benzamide] was tested. Which “Fluorescence Assay IC50” value did it give?
Answer: The value was 3.13 ng/mL.

Question: For `CC(C)C(NC(=O)C(N)Cc1cccc2ccccc12)C(=O)NC(Cc1ccccc1)C(O)Cc1ccccc1C(=O)NC(C)(C)C` (stereo not drawn) [Example 3, 2R-(2R*, 3S*, 6S*, 9S*)!-N-t-Butyl-2-2-hydroxy-3-phenylmethyl-5,8-dioxo-6-(1-methylethyl)-9-amino-10-naphth-1-yl!decyl benzamide], which “Fluorescence Assay IC50” value is on record?
Answer: The value was 0.48 ng/mL.

Question: Which “Fluorescence Assay IC43” value (concentration giving 43% inhibition, the concentration of the compound was not increased above the stated concentration, normalized to positive control) does the source give for `CC(C)(C)NC(=O)c1ccccc1CC(O)C(Cc1ccccc1)NC(=O)C(N)CC(N)=O` (stereo not drawn) [Example 5B, 2R-(2R*, 3S*, 6S*)!-N-t-Butyl-2-2-hydroxy-3-phenylmethyl-4-aza-5-oxo-6-amino-7-carbamoyl!heptyl benzamide] here?
Answer: Its value is 1000 ng/mL.

Question: With `CC(C)(C)NC(=O)c1ccccc1CC(O)C(Cc1ccccc1)NC(=O)C(CC(N)=O)NC(=O)C(Cc1cccc2ccccc12)NC(=O)OC(C)(C)C` (stereo not drawn) [Example 5C, 2R-(2R*,3S*, 6S*,9R*)!-N-t-Butyl-2-2-hydroxy-3-phenylmethyl-4,7-diaza-5,8-dioxo-6-(carbamoylmethyl)-9-N(t-butoxycarbonyl))amino-10-naphth-1-yl!decyl benzamide] as the molecule, how does the “Fluorescence Assay IC50” value read?
Answer: The value was 0.53 ng/mL.

Question: `CC(C)(C)NC(=O)c1ccccc1CC(O)C(Cc1ccccc1)NC(=O)C(CC(N)=O)NC(=O)C(Cc1cccc2ccccc12)NC(=O)OC(C)(C)C` (stereo not drawn) [Example 6, 2R-(2R*,3S*,6S*,9S*)!-N-t-Butyl-2-2-hydroxy-3-phenylmethyl-4,7-diaza-5,8-dioxo-6-(carbamoylmethyl)-9-N(t-butoxycarbonyl)amino-10-naphth-1-yl!decyl benzamide] was tested. Which “Fluorescence Assay IC50” value did it give?
Answer: Its value is 2.4 ng/mL.

Question: For `CC(C)(C)NC(=O)c1ccccc1CC(O)C(Cc1ccccc1)NC(=O)C(CC(N)=O)NC(=O)C(N)Cc1cccc2ccccc12` (stereo not drawn) [Example 7, 2R-(2R*, 3S*, 6S*, 9S*)!-N-t-Butyl-2-2-hydroxy-3-phenylmethyl-4,7-diaza-5,8-dioxo-6-(carbamoylmethyl)-9-amino-10-naphth-1-yl!decyl benzamide], which “Fluorescence Assay IC50” value is on record?
Answer: The value was 0.95 ng/mL.

Question: Which “Fluorescence Assay IC50” value does the source give for `CC(C)(C)NC(=O)c1ccccc1CC(O)C(Cc1ccccc1)NC(=O)C(CC(N)=O)NC(=O)C(Cc1ccccc1)NC(=O)OC(C)(C)C` (stereo not drawn) [Example 9, 2R-(2R*, 3S*, 6S*, 9S*)!-N-t-Butyl-2-2-hydroxy-3-phenylmethyl-4,7-diaza-5,8-dioxo-6-(carbamoylmethyl)-9-N(t-butoxycarbonyl)amino-10-phenyl!decyl benzamide] here?
Answer: Its value is 1.76 ng/mL.

Question: With `CC(C)(C)NC(=O)c1ccccc1CC(O)C(Cc1ccccc1)NC(=O)C(CC(N)=O)NC(=O)C(Cc1ccccc1)NC(=O)OC(C)(C)C` (stereo not drawn) [Example 10, 2R-(2R*, 3S*, 6S*, 9R* )!-N-t-Butyl-2-2-hydroxy-3-phenylmethyl-4,7-diaza-5,8-dioxo-6-(carbamoylmethyl)-9-N(t-butoxycarbonyl)amino-10-phenyl!decyl benzamide] as the molecule, how does the “Fluorescence Assay IC50” value read?
Answer: The value was 1.67 ng/mL.

Question: For `CC(C)(C)NC(=O)c1ccccc1CC(O)C(Cc1ccccc1)NC(=O)C(Cc1c[nH]cn1)NC(=O)C(Cc1cccc2ccccc12)NC(=O)OC(C)(C)C` (stereo not drawn) [Example 11C, 2R-(2R*,3S*,6S*,9S*)!-N-t-Butyl-2-2-hydroxy-3-phenylmethyl-4,7-diaza-5,8-dioxo-6-(imidazol-4-ylmethyl)-9-N(t-butoxycarbonyl)amino-10-naphth-1-yl!decyl benzamide], which “Fluorescence Assay IC50” value is on record?
Answer: Its value is 7.78 ng/mL.

Question: How did the “Fluorescence Assay IC50” value turn out when `CC(C)(C)NC(=O)c1ccccc1CC(O)C(Cc1ccccc1)NC(=O)C(Cc1c[nH]cn1)NC(=O)C(Cc1cccc2ccccc12)NC(=O)OC(C)(C)C` (stereo not drawn) [Example 12, 2R-(2R*,3S*,6S*,9R*)!-N-t-Butyl-2-2-hydroxy-3-phenylmethyl-4,7-diaza-5,8-dioxo-6-(imidazol-4-ylmethyl)-9-N(t-butoxycarbonyl)amino-10-naphth-1-yl!decyl benzamide] was run?
Answer: Its value is 1.6 ng/mL.

Question: With `CC(C)(C)NC(=O)c1ccccc1CC(O)C(Cc1ccccc1)NC(=O)C(CC(N)=O)NC(=O)C(Cc1cccc2ccccc12)NC(=O)OC(C)(C)C` (stereo not drawn) [Example 13, 2R-(2R*,3S*, 6R*,9S*)!-N-t-Butyl-2-2-hydroxy-3-phenylmethyl-4,7-diaza-5,8-dioxo-6-(carbamoylmethyl)-9-N(t-butoxycarbonyl)amino-10-naphth-1-yl!decyl benzamide] as the molecule, how does the “Fluorescence Assay IC50” value read?
Answer: The value was > 10000 ng/mL.

Question: With `CC(C)(C)NC(=O)c1ccccc1CC(O)C(Cc1ccccc1)NC(=O)C(CC(N)=O)NC(=O)C(Cc1c[nH]c2ccccc12)NC(=O)OC(C)(C)C` (stereo not drawn) [Example 14, 2R-(2R*, 3S*, 6S*, 9S*)!-N-t-Butyl-2-2-hydroxy-3-phenylmethyl-4,7-diaza-5,8-dioxo-6-(carbamoylmethyl)-9-N(t-butoxycarbonyl)amino-10-indol-3-yl!decyl benzamide] as the molecule, how does the “Fluorescence Assay IC50” value read?
Answer: The value was 0.93 ng/mL.

Question: `CC(C)(C)NC(=O)c1cccc(CC(O)C(Cc2ccccc2)NC(=O)C(CC(N)=O)NC(=O)C(Cc2c[nH]c3ccccc23)NC(=O)OC(C)(C)C)c1` (stereo not drawn) [Example 15, 2R-(2R*, 3S*, 6S*, 9R*)!-N-t-Butyl-3-2-hydroxy-3-phenylmethyl-4,7-diaza-5,8-dioxo-6-(carbamoylmethyl)-9-N(t-butoxycarbonyl)amino-10-indol-3-yl!decyl benzamide] was tested. Which “Fluorescence Assay IC50” value did it give?
Answer: The value was 1.05 ng/mL.

Question: `CC(C)(C)NC(=O)c1ccccc1CC(O)C(Cc1ccccc1)NC(=O)C(CC(N)=O)NC(=O)C(NC(=O)OC(C)(C)C)c1ccccc1` (stereo not drawn) [Example 16, 2R-(2R*, 3S*, 6S*, 9S*)!-N-t-Butyl-2-2-hydroxy-3-phenylmethyl-4,7-diaza-5,8-dioxo-6-(carbamoylmethyl)-9-N(t-butoxycarbonyl)amino-9-phenyl!nonyl benzamide] was tested. Which “Fluorescence Assay IC50” value did it give?
Answer: Its value is 106 ng/mL.

Question: Which “Fluorescence Assay IC25” value (concentration giving 25% inhibition, the concentration of the compound was not increased above the stated concentration, normalized to positive control) does the source give for `CC(C)(C)NC(=O)c1ccccc1CC(O)C(Cc1ccccc1)NC(=O)C(CC(N)=O)NC(=O)C(NC(=O)OC(C)(C)C)c1ccccc1` (stereo not drawn) [Example 17, 2R-(2R*, 3S*, 6S*, 9R*)!-N-t-butyl-2-2-hydroxy-3-phenylmethyl-4,7-diaza 5,8-dioxo-6-(carbamoylmethyl)-9-N(t-butoxycarbonyl)amino-9-phenyl!nonyl benzamide] here?
Answer: Its value is 100 ng/mL.
